# PubChem BioAssay (NCI)
#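 Tested at 5 concentrations; 48 h exposure; 96-well plates; endpoints linearly interpolated, else capped at highest concentration. GI50 = concentration required for 50% inhibition of growth. TGI denotes the concentration required for complete inhibition of growth.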
# How the values were obtained:
# Experiment in all cases: DTP human tumour cell line panel, 48 h
# SN12C renal = system: SN12C renal
# SW-620 colon = system: SW-620 colon
# HL-60(TB) leukemia = system: HL-60(TB) leukemia
# COLO 205 colon = system: COLO 205 colon
# HCT-15 colon = system: HCT-15 colon
# SNB-75 CNS = system: SNB-75 CNS
# UACC-62 melanoma = system: UACC-62 melanoma
# NCI-H522 lung = system: NCI-H522 lung
# PC-3 prostate = system: PC-3 prostate
# HOP-62 NSCLC = system: HOP-62 NSCLC
# ACHN renal = system: ACHN renal
# SK-OV-3 ovarian = system: SK-OV-3 ovarian
# RXF 393 renal = system: RXF 393 renal
# MALME-3M melanoma = system: MALME-3M melanoma
# MDA-MB-435 = system: MDA-MB-435
# SK-MEL-5 melanoma = system: SK-MEL-5 melanoma
# SK-MEL-28 melanoma = system: SK-MEL-28 melanoma
# A549 NSCLC = system: A549 NSCLC
# KM12 colon = system: KM12 colon
# SNB-19 CNS = system: SNB-19 CNS
# EKVX NSCLC = system: EKVX NSCLC
# LOX IMVI melanoma = system: LOX IMVI melanoma
# NCI-H460 lung = system: NCI-H460 lung
# IGROV1 ovarian = system: IGROV1 ovarian
# NCI/ADR-RES ovarian = system: NCI/ADR-RES ovarian
# OVCAR-8 ovarian = system: OVCAR-8 ovarian
# SF-268 CNS = system: SF-268 CNS
# MCF7 breast = system: MCF7 breast
# CAKI-1 renal = system: CAKI-1 renal
# SK-MEL-2 melanoma = system: SK-MEL-2 melanoma
# T-47D breast = system: T-47D breast
# SF-539 CNS = system: SF-539 CNS
# NCI-H226 lung = system: NCI-H226 lung
# HT29 colon = system: HT29 colon
# SR leukemia = system: SR leukemia
# OVCAR-5 ovarian = system: OVCAR-5 ovarian
# M14 melanoma = system: M14 melanoma
# U251 CNS = system: U251 CNS
# NCI-H23 lung = system: NCI-H23 lung
# UACC-257 melanoma = system: UACC-257 melanoma
# UO-31 renal = system: UO-31 renal
# HS 578T breast = system: HS 578T breast
# HCT-116 colon = system: HCT-116 colon
# BT-549 breast = system: BT-549 breast
# 786-0 renal = system: 786-0 renal
# TK-10 renal = system: TK-10 renal
# HOP-92 NSCLC = system: HOP-92 NSCLC
# MDA-MB-231 breast = system: MDA-MB-231 breast
# K-562 leukemia = system: K-562 leukemia
# OVCAR-4 ovarian = system: OVCAR-4 ovarian
# OVCAR-3 ovarian = system: OVCAR-3 ovarian
# SF-295 CNS = system: SF-295 CNS
# DU-145 prostate = system: DU-145 prostate
# MOLT-4 leukemia = system: MOLT-4 leukemia
# A498 renal = system: A498 renal
# CCRF-CEM leukemia = system: CCRF-CEM leukemia
# RPMI-8226 leukemia = system: RPMI-8226 leukemia
# HCC-2998 colon = system: HCC-2998 colon
compound,measurement,setting,value
CC1=NN(C(=O)c2ccc(Cl)cc2)C(=O)C1N=Nc1ccc(S(=O)(=O)Nc2ncccn2)cc1 (stereo not drawn),TGI,SN12C renal,> 100 µM
same,TGI,SW-620 colon,> 100 µM
same,TGI,HL-60(TB) leukemia,> 100 µM
same,TGI,COLO 205 colon,> 100 µM
same,TGI,HCT-15 colon,> 100 µM
same,TGI,SNB-75 CNS,> 100 µM
same,TGI,UACC-62 melanoma,> 100 µM
same,TGI,NCI-H522 lung,> 100 µM
same,TGI,PC-3 prostate,5.11 µM
same,TGI,HOP-62 NSCLC,> 100 µM
same,TGI,ACHN renal,> 100 µM
same,TGI,SK-OV-3 ovarian,> 100 µM
same,TGI,RXF 393 renal,> 100 µM
same,TGI,MALME-3M melanoma,> 100 µM
same,TGI,MDA-MB-435,> 100 µM
same,TGI,SK-MEL-5 melanoma,> 100 µM
same,TGI,SK-MEL-28 melanoma,> 100 µM
same,TGI,A549 NSCLC,> 100 µM
same,TGI,KM12 colon,> 100 µM
same,TGI,SNB-19 CNS,> 100 µM
same,TGI,EKVX NSCLC,> 100 µM
same,TGI,LOX IMVI melanoma,> 100 µM
same,TGI,NCI-H460 lung,> 100 µM
same,TGI,IGROV1 ovarian,> 100 µM
same,TGI,NCI/ADR-RES ovarian,> 100 µM
same,TGI,OVCAR-8 ovarian,> 100 µM
same,TGI,SF-268 CNS,> 100 µM
same,TGI,MCF7 breast,> 100 µM
same,TGI,CAKI-1 renal,> 100 µM
same,TGI,SK-MEL-2 melanoma,> 100 µM
same,TGI,T-47D breast,> 100 µM
same,TGI,SF-539 CNS,> 100 µM
same,TGI,NCI-H226 lung,> 100 µM
same,TGI,HT29 colon,> 100 µM
same,TGI,SR leukemia,> 100 µM
same,TGI,OVCAR-5 ovarian,> 100 µM
same,TGI,M14 melanoma,> 100 µM
same,TGI,U251 CNS,> 100 µM
same,TGI,NCI-H23 lung,> 100 µM
same,TGI,UACC-257 melanoma,> 100 µM
same,TGI,UO-31 renal,> 100 µM
same,TGI,HS 578T breast,> 100 µM
same,TGI,HCT-116 colon,> 100 µM
same,TGI,BT-549 breast,> 100 µM
same,TGI,786-0 renal,> 100 µM
same,TGI,TK-10 renal,> 100 µM
same,TGI,HOP-92 NSCLC,2.07 µM
same,TGI,MDA-MB-231 breast,> 100 µM
same,TGI,K-562 leukemia,> 100 µM
same,TGI,OVCAR-4 ovarian,> 100 µM
same,TGI,OVCAR-3 ovarian,> 100 µM
same,TGI,SF-295 CNS,> 100 µM
same,TGI,DU-145 prostate,> 100 µM
same,TGI,MOLT-4 leukemia,> 100 µM
Cc1cc(Nc2ccc3c(c2)OCO3)c2cc3c(cc2n1)OCO3,GI50,SN12C renal,4.14 µM
same,TGI,SN12C renal,31.3 µM
same,GI50,SW-620 colon,0.756 µM
same,TGI,SW-620 colon,15.4 µM
same,GI50,HL-60(TB) leukemia,0.745 µM
same,TGI,HL-60(TB) leukemia,> 19.9 µM
same,GI50,COLO 205 colon,1.31 µM
same,TGI,COLO 205 colon,4.03 µM
same,GI50,HCT-15 colon,0.9 µM
same,TGI,HCT-15 colon,16.6 µM
same,GI50,SNB-75 CNS,0.766 µM
same,TGI,SNB-75 CNS,7.38 µM
same,GI50,UACC-62 melanoma,2.08 µM
same,TGI,UACC-62 melanoma,16.5 µM
same,GI50,NCI-H522 lung,2.35 µM
same,TGI,NCI-H522 lung,10 µM
same,GI50,PC-3 prostate,1.13 µM
same,TGI,PC-3 prostate,11.5 µM
same,GI50,HOP-62 NSCLC,3.84 µM
same,TGI,HOP-62 NSCLC,20.3 µM
same,GI50,ACHN renal,6.23 µM
same,TGI,ACHN renal,26.6 µM
same,GI50,A498 renal,0.812 µM
same,TGI,A498 renal,4.72 µM
same,GI50,SK-OV-3 ovarian,3.22 µM
same,TGI,SK-OV-3 ovarian,30.1 µM
same,GI50,MALME-3M melanoma,2.08 µM
same,TGI,MALME-3M melanoma,20.9 µM
same,GI50,MDA-MB-435,0.265 µM
same,TGI,MDA-MB-435,1.37 µM
same,GI50,CCRF-CEM leukemia,1.92 µM
same,TGI,CCRF-CEM leukemia,10.2 µM
same,GI50,SK-MEL-5 melanoma,0.821 µM
same,TGI,SK-MEL-5 melanoma,14.1 µM
same,GI50,SK-MEL-28 melanoma,1.93 µM
same,TGI,SK-MEL-28 melanoma,14.1 µM
same,GI50,A549 NSCLC,1.37 µM
same,TGI,A549 NSCLC,11.6 µM
same,GI50,KM12 colon,1.05 µM
same,TGI,KM12 colon,14.4 µM
same,GI50,SNB-19 CNS,2.38 µM
same,TGI,SNB-19 CNS,20.9 µM
same,GI50,EKVX NSCLC,1.64 µM
same,TGI,EKVX NSCLC,13.2 µM
same,GI50,LOX IMVI melanoma,1.85 µM
same,TGI,LOX IMVI melanoma,11.5 µM
same,GI50,NCI-H460 lung,2.3 µM
same,TGI,NCI-H460 lung,12.3 µM
same,GI50,IGROV1 ovarian,0.318 µM
same,TGI,IGROV1 ovarian,3.8 µM
same,GI50,NCI/ADR-RES ovarian,2.15 µM
same,TGI,NCI/ADR-RES ovarian,18.5 µM
same,GI50,OVCAR-8 ovarian,3.13 µM
same,TGI,OVCAR-8 ovarian,15.5 µM
same,GI50,SF-268 CNS,3.69 µM
same,TGI,SF-268 CNS,19.3 µM
same,GI50,MCF7 breast,0.376 µM
same,TGI,MCF7 breast,15 µM
same,GI50,CAKI-1 renal,2.55 µM
same,TGI,CAKI-1 renal,30.7 µM
same,GI50,SK-MEL-2 melanoma,4.54 µM
same,TGI,SK-MEL-2 melanoma,21.5 µM
same,GI50,T-47D breast,4.69 µM
same,TGI,T-47D breast,38.6 µM
same,GI50,SF-539 CNS,2.12 µM
same,TGI,SF-539 CNS,6.73 µM
same,GI50,NCI-H226 lung,2.94 µM
same,TGI,NCI-H226 lung,16.4 µM
same,GI50,HT29 colon,0.878 µM
same,TGI,HT29 colon,18.8 µM
same,GI50,SR leukemia,0.532 µM
same,TGI,SR leukemia,> 84.4 µM
same,GI50,OVCAR-5 ovarian,4.24 µM
same,TGI,OVCAR-5 ovarian,41.1 µM
same,GI50,M14 melanoma,1.19 µM
same,TGI,M14 melanoma,6.99 µM
same,GI50,U251 CNS,2.8 µM
same,TGI,U251 CNS,14.2 µM
same,GI50,NCI-H23 lung,3.93 µM
same,TGI,NCI-H23 lung,23.7 µM
same,GI50,UACC-257 melanoma,3.57 µM
same,TGI,UACC-257 melanoma,23.4 µM
same,GI50,UO-31 renal,1.63 µM
same,TGI,UO-31 renal,9.1 µM
same,GI50,HS 578T breast,1.08 µM
same,TGI,HS 578T breast,5.35 µM
same,GI50,HCT-116 colon,1.42 µM
same,TGI,HCT-116 colon,15.8 µM
same,GI50,BT-549 breast,4.26 µM
same,TGI,BT-549 breast,26.2 µM
same,GI50,786-0 renal,4.2 µM
same,TGI,786-0 renal,17.8 µM
same,GI50,RPMI-8226 leukemia,0.526 µM
same,TGI,RPMI-8226 leukemia,3.6 µM
same,GI50,TK-10 renal,5.62 µM
same,TGI,TK-10 renal,32.5 µM
same,GI50,HOP-92 NSCLC,1.48 µM
same,TGI,HOP-92 NSCLC,9.07 µM
same,GI50,MDA-MB-231 breast,2.58 µM
same,TGI,MDA-MB-231 breast,17 µM
same,GI50,K-562 leukemia,1.24 µM
same,TGI,K-562 leukemia,> 100 µM
same,GI50,HCC-2998 colon,2.33 µM
same,TGI,HCC-2998 colon,6.47 µM
same,GI50,OVCAR-4 ovarian,5.2 µM
same,TGI,OVCAR-4 ovarian,44.4 µM
same,GI50,OVCAR-3 ovarian,0.701 µM
same,TGI,OVCAR-3 ovarian,3.03 µM
same,GI50,SF-295 CNS,0.563 µM
same,TGI,SF-295 CNS,8.85 µM
same,GI50,DU-145 prostate,2.91 µM
same,TGI,DU-145 prostate,12.3 µM
same,GI50,MOLT-4 leukemia,2.51 µM
same,TGI,MOLT-4 leukemia,> 54.5 µM
